In PMC8949187, “Study of Structure–Activity Relationships of the Marine Alkaloid Fascaplysin and Its Derivatives as Potent Anticancer Agents” (Marine Drugs, 2022):

Key:
[1] = system: MRC-9 cells; assay: MTT assay, MRC-9 cells; format: cell-based, human; conditions: Homo sapiens, MRC9; non-cancer cells; 48 h of treatment; mean ± SD
Procedure: (§1) The human prostate cancer cell lines PC-3, DU145, 22Rv1 and LNCaP, as well as human prostate non-cancer cell line PNT2 were purchased from ATCC (Manassas, VA, USA). HEK 293T (human embryonic kidney cells) and MRC-9 (human fibroblast cells) cell lines were purchased from ECACC (Salisbury, UK). […] Authentication of all cell lines used was recently performed by a commercial service (Multiplexion GmbH, Heidelberg, Germany).
(§2) Cells were cultured as monolayers at 37 °C in a humidified atmosphere with 5% (v/v) CO2 in the correspondent culture medium: 10% FBS/RPMI medium (RPMI medium supplemented with Glutamax^TM-I (gibco® Life technologies^TM, Paisley, UK) containing 10% fetal bovine serum (FBS, gibco® Life technologies^TM) and 1% penicillin/streptomycin (Invitrogen)) for PNT2, LNCaP, 22Rv1, PC-3 and DU145 and cells; 10% FBS/DMEM medium (DMEM medium supplemented with Glutamax^TM-I (gibco® Life technologies^TM) containing 10% FBS and 1% penicillin/streptomycin (gibco® Life technologies^TM)) for MRC-9 and HEK 293 cells. Cells were continuously kept in culture for a maximum of 3 months, and were regularly checked for stable phenotype and mycoplasma infection.
(§3) Effect of the drugs on cell viability in terms of metabolic activity was assessed by MTT assay, as previously reported. Cells were pre-incubated overnight in 96-well plates (6 × 10^3 cells/well in 100 μL/well) in the correspondent culture media. Then, the medium was replaced with fresh 10% FBS/RPMI medium containing the investigated compounds (100 μL/well), and cells were incubated for 48 h, unless otherwise stated. Next, 10 μL/well of (3-(4,5-dimethylthiazol-2-yl)-2,5-diphenyltetrazolium bromide) reagent (MTT, 5 mg/mL) was added. After 2–4 h of incubation, the media was aspirated and the plates were dried. Then, 50 μL/well of DMSO was added to each well and the cell viability was measured using an Infinite F200PRO reader (TECAN, Männedorf, Switzerland). Results were calculated using the GraphPad Prism software v.9.1.1 (GraphPad Software, San Diego, CA, USA) and are represented as IC50 of the compounds calculated using the cells treated with the solvent alone as a control.

[2] = system: 22Rv1 cells; assay: Trypan blue-based viability assay; format: cell-based, human; conditions: Homo sapiens, 48 h of treatment, mean ± SD, read-out: IC50, trypan blue staining assay
Procedure: The effect of the drugs on cell viability in terms of cellular membrane integrity was evaluated by the trypan blue exclusion assay as described before. In brief, cells (0.2 × 10^6 cells/well) were seeded in 6-well plates and incubated overnight, and the media was replaced with fresh media (1 mL/well) containing drugs at indicated concentrations. After treatment for 48 h, the cells were harvested by trypsinization, stained with trypan blue and the viability was measured using an automatic Beckman Coulter Vi-CELL (Beckman Coulter, Krefeld, Germany). Trypan blue-positive cells were assumed to have damaged cellular membrane (i.e., dead), whereas trypan blue-negative cells were considered to have an intact cellular membrane (i.e., alive).

[3] = system: 22Rv1 cells; assay: Cell cycle progression, flow cytometry with PI staining; format: cell-based, human; conditions: treated at IC50 (MTT assay) for 48 h
Procedure: (§4) The effects on cell cycle progression and DNA fragmentation were analyzed by flow cytometry using PI staining, as described before. Cells (2 × 10^5 cells/well) were pre-incubated overnight in 6-well plates and then treated with the investigated drugs in fresh culture media (2 mL/well) for 48 h. Cells were harvested by trypsinization, fixed in 70% EtOH, stained with PI solution and analyzed by FACS Calibur (BD Bioscience, San Jose, CA, USA). The results were quantified using BD Bioscience Cell Quest Pro v.5.2.1. software (BD Bioscience). The cells appearing as a sub-G1 population (containing fragmented DNA) were considered to be apoptotic.

[4] = system: 22Rv1 cells; assay: DNA fragmentation (apoptosis, sub-G1), flow cytometry with PI staining; format: cell-based, human; conditions: treated at IC50 (MTT assay) for 48 h, mean ± SD
Procedure: as §4

[5] = system: double-stranded calf thymus DNA; assay: Thiazole orange displacement (DNA intercalation) assay; format: binding; conditions: 1 µM calf thymus DNA base pairs, 2 µM thiazole orange; 7 min at room temperature; mean ± SD
Procedure: DNA intercalation activity of the compounds was calculated as an ability to displace thiazole orange (TO) from the double-stranded DNA. For this experiment, a mixture (100 µL) containing 1 µM of double-stranded calf thymus DNA (recalculated as a concentration of base pairs) and 2 µM of thiazole orange (TO) solved in water was prepared. Then, the investigated compounds were added up to final concentrations of 0.39–25 µM; DMSO concentration in the samples was <0.02%. Propidium iodide (PI, positive control) was added up to final concentrations of 0.039–2.5 uM. After 7 min of incubation at room temperature, TO fluorescence was monitored using a multimodal plate reader TECAN Spark (Tecan Group Ltd., Männedorf Switzerland) at the excitation λ = 480 nm; fluorescence was recorded at λ = 530 nm. The bandwidth was 10 nm. The concentration of the drug that caused a decrease in TO fluorescence by 50% (EC50) was determined by approximating the experimental data using a non-linear regression algorithm and calculated using the GraphPad Prism software v.9.1.1 (GraphPad Software, San Diego, CA, USA).

[6] = system: prostate cancer cell lines (PC-3, 22Rv1, DU145 and LNCaP); assay: MTT assay, mean over four prostate cancer cell lines; format: cell-based; conditions: Homo sapiens; mean of MTT IC50 in PC-3, 22Rv1, DU145 and LNCaP; from Table S1 values; read-out: mean IC50 in cancer cells
Procedure: as §3, with “Next, SAR analysis was performed to identify the structural elements that are beneficial for anticancer activity of the fascaplysin-related molecules. Considering the complex and heterogeneous nature of tumors even within the same patient, we used calculated mean IC50 values of each drug in all prostate cancer cells for further analysis (Figure 2A). To identify the drug candidates with the highest therapeutic potential, the selectivity index (SI) was calculated as mean IC50 in non-cancer cells versus mean IC50 in cancer cells (Figure 2B), or as a mean IC50 in non-cancer (MRC-9 and HEK293) cells versus mean IC50 in prostate cells (cancer PC-3, 22Rv1, DU145, LNCaP and non-cancer PNT2 cells) (Figure 2C). Finally, to estimate the effects on cellular metabolism, we compared the activity evaluated by using trypan blue assay versus MTT assay (Figure 2D). Effect” for “Effect”, “2-4” for “2–4”, “F200PRO” left out

[7] = system: non-cancer cell lines versus cancer cell lines; assay: Selectivity index from MTT IC50s; format: cell-based, human; conditions: for Selectivity index, IC50 (non-prostate) / IC50 (prostate): mean IC50 MRC-9 and HEK-293 versus mean IC50 prostate cancer cell lines plus PNT2; for Selectivity index, IC50 (non-prostate) / IC50 (prostate) / Selectivity index, IC50 (non-cancer) / IC50 (cancer): MTT; for Selectivity index, IC50 (non-cancer) / IC50 (cancer): mean IC50 non-cancer cell lines versus mean IC50 cancer cell lines
Procedure: as §3, with “Next, SAR analysis was performed to identify the structural elements that are beneficial for anticancer activity of the fascaplysin-related molecules. Considering the complex and heterogeneous nature of tumors even within the same patient, we used calculated mean IC50 values of each drug in all prostate cancer cells for further analysis (Figure 2A). To identify the drug candidates with the highest therapeutic potential, the selectivity index (SI) was calculated as mean IC50 in non-cancer cells versus mean IC50 in cancer cells (Figure 2B), or as a mean IC50 in non-cancer (MRC-9 and HEK293) cells versus mean IC50 in prostate cells (cancer PC-3, 22Rv1, DU145, LNCaP and non-cancer PNT2 cells) (Figure 2C). Finally, to estimate the effects on cellular metabolism, we compared the activity evaluated by using trypan blue assay versus MTT assay (Figure 2D). Effect” for “Effect”, “2-4” for “2–4”, “F200PRO” left out

[8] = system: VEGFR3; design: method as in PMID 28961193; conditions: cited from earlier work
[9] = system: VEGFR2; design: method as in PMID 28961193; conditions: cited from earlier work
[10] = system: TRKA; design: method as in PMID 28961193; conditions: cited from earlier work
[11] = system: tumor growth; design: method as in PMID 28961193, PMID 25561006; conditions: various in vivo models; cited from earlier work
[12] = system: PC-3 cells; assay: MTT assay, PC-3 cells; format: cell-based, human; conditions: Homo sapiens, PC-3; prostate cancer cells; 48 h of treatment; mean ± SD
Procedure: as §1, §2, §3

[13] = system: 22Rv1 cells; assay: MTT assay, 22Rv1 cells; format: cell-based, human; conditions: Homo sapiens, 22Rv1; prostate cancer cells; 48 h of treatment; mean ± SD
Procedure: as §1, §2, §3

[14] = system: DU145 cells; assay: MTT assay, DU145 cells; format: cell-based, human; conditions: Homo sapiens, DU-145; prostate cancer cells; 48 h of treatment; mean ± SD
Procedure: as §1, §2, §3

[15] = system: LNCaP cells; assay: MTT assay, LNCaP cells; format: cell-based, human; conditions: Homo sapiens, LNCaP; prostate cancer cells; 48 h of treatment; mean ± SD
Procedure: as §1, §2, §3

[16] = system: PNT2 cells; assay: MTT assay, PNT2 cells; format: cell-based, human; conditions: Homo sapiens, PNT2; non-cancer cells; 48 h of treatment; mean ± SD
Procedure: as §1, §2, §3

[17] = system: HEK-293 cells; assay: MTT assay, HEK-293 cells; format: cell-based, human; conditions: Homo sapiens, HEK293; non-cancer cells; 48 h of treatment; mean ± SD
Procedure: as §1, §2, §3

Row | SMILES | IC50 [1] [nM] | IC50 [2] [nM] | Cell cycle arrest (at IC50) [3] | % of sub-G1 apoptotic cells (at IC50) [4] [%] | EC50 [5] [nM] | IC50 [6] [nM] | Selectivity index, IC50 (non-prostate) / IC50 (prostate) [7] | Selectivity index, IC50 (non-cancer) / IC50 (cancer) [7] | concentration inhibiting VEGFR3 [8] | concentration inhibiting VEGFR2 [9] | concentration inhibiting TRKA [10] | dose at which tumor growth is inhibited [11] [mg/kg] | IC50 [12] [nM] | IC50 [13] [nM] | IC50 [14] [nM] | IC50 [15] [nM] | IC50 [16] [nM] | IC50 [17] [nM] | Selectivity index (SI), for Figure 2B,C ([7]; both SI definitions (Figure 2B,C))
1 | O=C1c2ccccc2-[n+]2ccc3c([nH]c4ccccc43)c21 [Compound 1, fascaplysin] | 890 ± 46 | 335 ± 93 | G1-phase arrest | 11.43±0.843 | 530 ± 10 | 550 | 1.26 | 1.09 | lower than 3 µM | lower than 3 µM | lower than 3 µM | 1 to 5 | – | – | – | – | – | – | –
2 | O=C1c2ccccc2-[n+]2ccc3c([nH]c4ccc(Br)cc43)c21.[Cl-] [Compound 6, 12,13-dihydro-9-bromo-13-oxopyrido[1,2-a:3,4-b’]diindol-5-ium chloride] | 15500 ± 2500 | 2790 ± 223 | No | 32.38±1 | > 25000 | 1880 | 4.54 | 3.65 | – | – | – | – | 2780 ± 370 | 1070 ± 94 | 2240 ± 180 | 1410 ± 89 | 2450 ± 950 | 2540 ± 1140 | –
3 | O=C1c2ccc(Br)cc2-[n+]2ccc3c([nH]c4cc(Br)ccc43)c21 [Compound 8, 3,10-dibromofascaplysin] | > 50000 | 5140 ± 220 | No | 3.83±0.442 | 4380 ± 60 | 2520 | – | – | – | – | – | – | 7280 ± 480 | 690 ± 19 | 1510 ± 56 | 593 ± 91 | 3490 ± 1010 | 540 ± 48 | 7–9
